Results published in US20140030304A1, “Process for the Treatment of Synthetic Textiles with Cationic Biocides” (priority 2011, published 2014).
Like-named read-outs stand apart in the source and are kept apart here.

System: Escherichia coli
Assay: Quick-kill test (AATCC-100) on treated PP textile, Escherichia coli
Format: cell-based

| Compound | log-reduction / killing, E. coli (textile spray-treated with aqueous solution of unformulated biocide (2-3% w), 5 min, positive control) | biocide activity against E. coli (textile spray-treated with aqueous solution of unformulated biocide (2-3% w), after 2 h) | log-reduction / killing, E. coli |
| --- | --- | --- | --- |
| CCCCCCCCCCCCCCCC[N+](C)(C)C.[Cl-] [CTAC, cetyltrimethylammonium chloride] | 1.5 log | very effective | – |
| polyhexamethylenbiguanid [PHMB] | – | – | showed killing |
